Nine compounds from ChEMBL document CHEMBL5376018 (RSC Med Chem, 2024) can be followed below.

pEC50: −log10 of the molar value. A value given as a limit tells only on which side of the number the result lay.

Data set [1] in a line: Selectivity index, ratio of CC50 for cytotoxicity against human H1-HeLa cells infected with 1 MOI human rhinovirus 14 to EC50 for antiviral activity against Human rhinovirus 14 infected in human H1-HeLa cells. The conditions noted are these: H1-HeLa cells infected with human rhinovirus 14, read-out: Ratio CC50/EC50. The class given is toxicity, cell-based.
The next data set deals with H1-HeLa. As to the kind of experiment: cells. The conditions noted are these: Homo sapiens, 1 h.
A further data set concerns rhinovirus A16. As to the kind of experiment: Antiviral activity against Human rhinovirus 16 infected in human H1-HeLa cells incubated for 3 days measured by crystal violet staining based plaque counting analysis. The settings on record: Rhinovirus A, 72 h.
Data set [2] can be described thus: Selectivity index, ratio of CC50 for cytotoxicity against human H1-HeLa cells infected with 1 MOI human rhinovirus 16 to EC50 for antiviral activity against Human rhinovirus 16 infected in human H1-HeLa cells. The class given is toxicity, cell-based. The settings on record: H1-HeLa cells infected with human rhinovirus 16, read-out: Ratio CC50/EC50.
Data set [3] in a line: Selectivity index, ratio of CC50 for cytotoxicity against human H1-HeLa cells infected with 1 MOI human rhinovirus 21 to EC50 for antiviral activity against Human rhinovirus 21 infected in human H1-HeLa cells. The class given is toxicity, cell-based. The settings on record: H1-HeLa cells infected with human rhinovirus 21, read-out: Ratio CC50/EC50.
In another data set the test system is rhinovirus B14. The data set is described as follows: Antiviral activity against Human rhinovirus 14 infected in human H1-HeLa cells incubated for 3 days measured by crystal violet staining based plaque counting analysis. The conditions noted are these: Rhinovirus B, 72 h.
For a further data set, the system named is rhinovirus A21. As to the kind of experiment: Antiviral activity against Human rhinovirus A21 infected in human H1-HeLa cells incubated for 3 days measured by crystal violet staining based plaque counting analysis. The settings on record: Rhinovirus A, 72 h.

As a reminder, the CC50 is the concentration that lowers cell viability or growth by half. High values mean lower toxicity to the cells, low ones greater toxicity to the cells. Broadly, the pEC50 is −log10 of the EC50, conventionally taken in molar units. A low value points to a high EC50. For the compound `CC(=O)Nc1nc(C)c(-c2ccc(Cl)c(S(=O)(=O)NCCO)c2)s1`, the figures for the selectivity ratio in data set [1], in data set [2] and in data set [3] were 21, 19 and 10, respectively. Moreover, the midpoint of cytotoxicity with H1-HeLa, the CC50, lay at 15.8 µM. For the same compound, the pEC50 with rhinovirus A16 is 6.08; in the data set on rhinovirus B14, 6.11; with rhinovirus A21, 5.80.

In the data set on H1-HeLa, `CCOC(=O)/C=C/[C@H](C[C@@H]1CCNC1=O)NC(=O)[C@@H](CC(=O)[C@@H](NC(=O)c1cc(C)on1)C(C)C)Cc1ccc(F)cc1` registered a CC50 of over 100 µM. Further, the figures for the pEC50 in the data set on rhinovirus A16, in the data set on rhinovirus B14 and with rhinovirus A21 were 7.10, 7.24 and 7.02, respectively.

Take `COCCNS(=O)(=O)c1cc(-c2sc(NC(=O)C(C)(C)C)nc2C)ccc1OC`: the selectivity ratio is over 15 in data set [1], over 25 in data set [2] and over 13 in data set [3]. In the data set with H1-HeLa, this compound yielded a half-maximal cytotoxic concentration (CC50) of over 20 µM. Moreover, the negative logarithm of the EC50 (pEC50) in the data set with rhinovirus A16 is 6.10; in the data set with rhinovirus B14, 5.89; with rhinovirus A21, 5.82.

Regarding `COc1ccc(-c2sc(NC(=O)C(C)(C)C)nc2C)cc1S(=O)(=O)NCCNC(C)=O`, the selectivity ratio in data set [1] was over 5; in data set [2], over 6; in data set [3], over 2. The compound further yielded a CC50 with H1-HeLa of over 20 µM. Moreover, the figures for the pEC50 with rhinovirus A16, with rhinovirus B14 and with rhinovirus A21 were 5.48, 5.36 and 5.04, respectively.

Turning to `COc1ccc(-c2sc(NC(C)=O)nc2C)cc1S(=O)(=O)CCN1CCOCC1`, the figures for the selectivity ratio in data set [1], in data set [2] and in data set [3] were over 14, over 15 and over 6, respectively. The same compound registered a CC50 in the data set with H1-HeLa of over 20 µM. Also, the pEC50 was 5.89 with rhinovirus A16, 5.85 in the data set with rhinovirus B14 and 5.49 in the data set with rhinovirus A21.

As to `COc1ccc(-c2sc(NC(=O)C(C)(C)C)nc2C)cc1S(=O)(=O)CCc1ccncc1`, the selectivity ratio is over 10 in data set [1], over 13 in data set [2] and over 7 in data set [3]. In the data set with H1-HeLa, this compound came in with a CC50 of 12.5 µM. The pEC50 in the data set on rhinovirus A16 is 6.00; in the data set with rhinovirus B14 it was 5.89; with rhinovirus A21, 5.77.

`COc1ccc(-c2sc(NC(=O)C(C)(C)C)nc2C)cc1S(=O)(=O)NCc1cccc(S(C)(=O)=O)c1`: the selectivity ratio in data set [1] is over 5; in data set [2], over 10; in data set [3], over 4. The compound also showed a half-maximal cytotoxic concentration (CC50) in the data set on H1-HeLa of over 20 µM. The pEC50 in the data set on rhinovirus A16 is 5.70; in the data set with rhinovirus B14, 5.42; in the data set on rhinovirus A21, 5.35.

Consider `COc1ccc(-c2sc(NC(=O)C(C)(C)C)nc2C)cc1S(=O)(=O)NCCN1CCOCC1`, for which the selectivity ratio in data set [1] was over 20; in data set [2] it was over 36; in data set [3], over 11. In the data set on H1-HeLa, this compound displayed a CC50 of over 20 µM. Moreover, the negative-log EC50 (pEC50) in the data set with rhinovirus A16 was 6.25; in the data set with rhinovirus B14, 6.00; in the data set on rhinovirus A21, 5.74.

On to `COc1ccc(-c2sc(NC(C)=O)nc2C)cc1`, for which the selectivity ratio in data set [1] is over 1; in data set [2], over 2; in data set [3] it was over 1. Further, the cytotoxic concentration (CC50) with H1-HeLa is over 20 µM. Further, the pEC50 was 4.92 in the data set on rhinovirus A16, 4.84 in the data set on rhinovirus B14 and 4.75 in the data set on rhinovirus A21.
